Assay results: PubChem BioAssay AID192 (DTP/NCI, 2004)
Values joined by “and” are separate entries in the source; they are usually repeats but may differ in a detail not shown here. Equal values may be shown once. Inconclusive results and toxic doses are left out.

Tested on: BDF1 mice, B16 melanoma ip, median survival T/C
Assay: NCI In Vivo Anticancer Drug Screen. Data for tumor model B16 Melanoma (intraperitoneal) in B6D2F1 (BDF1) mice
Conditions: endpoint: median survival time, higher = longer survival
Procedure, shortened: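 Tumor-bearing mice received test compound or vehicle. Survival or tumor size was then measured in both groups. The treated-group figure was divided by the control-group figure.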

[1] = dose: 200.0 mg/kg/injection, schedule: Q01DX009 (ip), vehicle: Klucel (hydroxypropylcellulose) (HPC)
[2] = dose: 400.0 mg/kg/injection, schedule: Q01DX009 (ip), vehicle: Klucel (hydroxypropylcellulose) (HPC)
[3] = dose: 25.0 mg/kg/injection, schedule: Q01DX009 (ip), vehicle: saline with Tween-80
[4] = dose: 50.0 mg/kg/injection, schedule: Q01DX009 (ip), vehicle: saline with Tween-80
[5] = dose: 100.0 mg/kg/injection, schedule: Q01DX009 (ip), vehicle: saline with Tween-80
[6] = dose: 400.0 mg/kg/injection, schedule: Q01DX009 (ip), vehicle: saline with Tween-80
[7] = dose: 100.0 mg/kg/injection, schedule: Q04DX003 (ip), vehicle: Klucel (hydroxypropylcellulose) (HPC)
[8] = dose: 200.0 mg/kg/injection, schedule: Q04DX003 (ip), vehicle: Klucel (hydroxypropylcellulose) (HPC)
[9] = dose: 400.0 mg/kg/injection, schedule: Q04DX003 (ip), vehicle: Klucel (hydroxypropylcellulose) (HPC)
[10] = dose: 12.5 mg/kg/injection, schedule: Q01DX009 (ip), vehicle: saline with Tween-80
[11] = dose: 200.0 mg/kg/injection, schedule: Q01DX009 (ip), vehicle: saline with Tween-80

Q: Which T/C (dose: 50.0 mg/kg/injection, schedule: Q01DX009 (sc), vehicle: olive oil, sesame oil, peanut oil) does the source give for `Cc1ccccc1Oc1ccccc1N` here?
A: 88 % of control

Q: What about the T/C (dose: 100.0 mg/kg/injection, schedule: Q01DX009 (sc), vehicle: olive oil, sesame oil, peanut oil) of the same compound?
A: 90 % of control

Q: What about the T/C (dose: 200.0 mg/kg/injection, schedule: Q01DX009 (sc), vehicle: olive oil, sesame oil, peanut oil) of the same compound?
A: 97 % of control

Q: And the T/C (dose: 400.0 mg/kg/injection, schedule: Q01DX009 (sc), vehicle: olive oil, sesame oil, peanut oil)?
A: 90 % of control

Q: What does the source list for `O=C(O)CCC1CCCCC1=O` (stereo not drawn)?
A: T/C [1]: 120 % of control; T/C [2]: 100 % of control

Q: With `CC(=O)NC(CC(C)C)C(=O)O` (stereo not drawn) as the compound, how does the T/C [3] read?
A: 108 % of control

Q: And the T/C [4]?
A: 121 % of control

Q: What about the T/C [5] of the same compound?
A: 101 % of control

Q: For `Cn1c(=O)c2[nH]c(Cc3ccc4c(c3)OCO4)nc2n(C)c1=O`, which T/C (dose: 0.25 mg/kg/injection, schedule: Q01DX009 (ip), vehicle: Klucel (hydroxypropylcellulose) (HPC)) is on record?
A: 96 % of control

Q: And the T/C (dose: 0.5 mg/kg/injection, schedule: Q01DX009 (ip), vehicle: Klucel (hydroxypropylcellulose) (HPC))?
A: 94 % of control

Q: What about the T/C (dose: 1.0 mg/kg/injection, schedule: Q01DX009 (ip), vehicle: Klucel (hydroxypropylcellulose) (HPC)) of the same compound?
A: 96 % of control

Q: And the T/C (dose: 2.0 mg/kg/injection, schedule: Q01DX009 (ip), vehicle: Klucel (hydroxypropylcellulose) (HPC))?
A: 93 % of control

Q: For `C[C@@H]1C[C@](O)([C@@H](C)Cl)C(=O)O[C@@H]2CCN3CC=C(COC(=O)[C@]1(C)O)[C@H]23`, which T/C (dose: 5.5 mg/kg/injection, schedule: Q01DX009 (ip), vehicle: saline) is on record?
A: 97 % of control

Q: And the T/C (dose: 11.0 mg/kg/injection, schedule: Q01DX009 (ip), vehicle: saline)?
A: 90 % of control

Q: And the T/C (dose: 22.0 mg/kg/injection, schedule: Q01DX009 (ip), vehicle: saline)?
A: 111 % of control

Q: What does the source list for `OC(Cc1nc2ccccc2s1)(C(F)(F)F)C(F)(F)F`?
A: T/C [5]: 111 % of control; T/C (dose: 100.0 mg/kg/injection, schedule: Q04DX003 (ip), vehicle: saline with Tween-80): 89 % of control; T/C [6]: 108 % of control; T/C (dose: 400.0 mg/kg/injection, schedule: Q04DX003 (ip), vehicle: saline with Tween-80): 102 % of control

Q: How did the T/C [7] turn out when `Cc1noc(/N=C/c2ccccc2)c1C` was run?
A: 108 % of control

Q: And the T/C [8]?
A: 105 % of control

Q: What about the T/C [9] of the same compound?
A: 108 % of control

Q: For `CCCCOC(=O)c1ccc(NC(=O)Nc2ccccc2Cl)cc1`, which T/C [10] is on record?
A: 102 % of control

Q: What about the T/C [3] of the same compound?
A: 102 % of control

Q: And the T/C [4]?
A: 88 % of control and 100 % of control

Q: How did the T/C (dose: 0.39 mg/kg/injection, schedule: Q01DX009 (ip), vehicle: Klucel (hydroxypropylcellulose) (HPC)) turn out when `CC(C)(C)c1ccc(CN2CCN(C(c3ccccc3)c3ccc(Cl)cc3)CC2)cc1` (stereo not drawn) was run?
A: 86 % of control

Q: And the T/C (dose: 3.12 mg/kg/injection, schedule: Q01DX009 (ip), vehicle: Klucel (hydroxypropylcellulose) (HPC))?
A: 95 % of control

Q: And the T/C (dose: 6.25 mg/kg/injection, schedule: Q01DX009 (ip), vehicle: Klucel (hydroxypropylcellulose) (HPC))?
A: 90 % of control

Q: And the T/C (dose: 12.5 mg/kg/injection, schedule: Q01DX009 (ip), vehicle: Klucel (hydroxypropylcellulose) (HPC))?
A: 87 % of control

Q: What about the T/C (dose: 175.0 nanograms/kg/injection, schedule: Q01DX009 (ip), vehicle: Klucel (hydroxypropylcellulose) (HPC)) of the same compound?
A: 105 % of control

Q: And the T/C (dose: 350.0 nanograms/kg/injection, schedule: Q01DX009 (ip), vehicle: Klucel (hydroxypropylcellulose) (HPC))?
A: 105 % of control

Q: And the T/C (dose: 700.0 nanograms/kg/injection, schedule: Q01DX009 (ip), vehicle: Klucel (hydroxypropylcellulose) (HPC))?
A: 101 % of control

Q: What about the T/C (dose: 1400.0 nanograms/kg/injection, schedule: Q01DX009 (ip), vehicle: Klucel (hydroxypropylcellulose) (HPC)) of the same compound?
A: 105 % of control

Q: What about the T/C (dose: 2800.0 nanograms/kg/injection, schedule: Q01DX009 (ip), vehicle: Klucel (hydroxypropylcellulose) (HPC)) of the same compound?
A: 107 % of control

Q: Which T/C [7] does the source give for `O=C1CC(CO)CN1CCc1ccccc1` (stereo not drawn) here?
A: 110 % of control

Q: What about the T/C [8] of the same compound?
A: 107 % of control

Q: And the T/C [9]?
A: 102 % of control

Q: `COc1cc(C(=O)N2CCN(c3ccccc3)CC2)c2ccccc2n1` was tested. Which T/C [5] did it give?
A: 119 % of control

Q: What about the T/C [11] of the same compound?
A: 119 % of control

Q: And the T/C [6]?
A: 124 % of control

Q: Which T/C (dose: 2.5 mg/kg/injection, schedule: Q01DX009 (ip), vehicle: saline with Tween-80) does the source give for `O=C1N[C@@H]2C(=C[C@H](O)[C@@H](O)[C@H]2O)c2cc3c(c(O)c21)OCO3` here?
A: 111 % of control

Q: What does the source list for `CCOc1ccc(-c2nc3ccc(-c4nc5ccc(N6CCN(C)CC6)cc5[nH]4)cc3[nH]2)cc1`?
A: T/C (dose: 3.12 mg/kg/injection, schedule: Q01DX009 (ip), vehicle: saline): 106 % of control; T/C (dose: 6.25 mg/kg/injection, schedule: Q01DX009 (ip), vehicle: saline): 113 % of control; T/C (dose: 12.5 mg/kg/injection, schedule: Q01DX009 (ip), vehicle: saline): 112 % of control

Q: What does the source list for `C=C(C)CNC1=C(C)C(=O)C2=C(C1=O)[C@H](COC(N)=O)[C@]1(OC)[C@@H]3N[C@@H]3CN21`?
A: T/C (dose: 0.13 mg/kg/injection, schedule: Q01DX001 (ip), vehicle: distilled water + Tween-80): 100 % of control; T/C (dose: 0.25 mg/kg/injection, schedule: Q01DX001 (ip), vehicle: distilled water + Tween-80): 114 % of control; T/C (dose: 1.5 mg/kg/injection, schedule: Q04DX003 (ip), vehicle: distilled water + Tween-80): 123 % of control; T/C (dose: 2.0 mg/kg/injection, schedule: Q01DX001 (ip), vehicle: distilled water + Tween-80): 153 % of control; T/C (dose: 3.0 mg/kg/injection, schedule: Q04DX003 (ip), vehicle: distilled water + Tween-80): 157 % of control; T/C (dose: 4.0 mg/kg/injection, schedule: Q01DX001 (ip), vehicle: distilled water + Tween-80): 167 % of control; T/C (dose: 6.0 mg/kg/injection, schedule: Q04DX003 (ip), vehicle: distilled water + Tween-80): 215 % of control; T/C (dose: 12.0 mg/kg/injection, schedule: Q04DX003 (ip), vehicle: distilled water + Tween-80): 285 % of control

Q: Which T/C (dose: 100.0 mg/kg/injection, schedule: Q01DX009 (ip), vehicle: Klucel (hydroxypropylcellulose) (HPC)) does the source give for `Cc1cccc(C)c1N1C(=O)CCC1=O` here?
A: 101 % of control

Q: What about the T/C [1] of the same compound?
A: 95 % of control

Q: And the T/C [2]?
A: 102 % of control

Q: Which results are given for `c1cc[c]([Pb]([S]c2nc3ccccc3[nH]2)([c]2ccccc2)[c]2ccccc2)cc1`?
A: T/C (dose: 0.75 mg/kg/injection, schedule: Q01DX009 (ip), vehicle: Klucel (hydroxypropylcellulose) (HPC)): 100 % of control; T/C (dose: 1.5 mg/kg/injection, schedule: Q01DX009 (ip), vehicle: Klucel (hydroxypropylcellulose) (HPC)): 94 % of control

Q: `O=C(N/N=C\c1cc(Br)cc(Br)c1O)N/N=C/c1cc(Br)cc(Br)c1O` was tested. Which T/C (dose: 6.25 mg/kg/injection, schedule: Q01DX009 (ip), vehicle: saline with Tween-80) did it give?
A: 108 % of control and 120 % of control

Q: What about the T/C (dose: 6.25 mg/kg/injection, schedule: Q01DX009 (ip), vehicle: sodium bicarbonate) of the same compound?
A: 96 % of control

Q: And the T/C [10]?
A: 104 % of control

Q: And the T/C (dose: 12.5 mg/kg/injection, schedule: Q01DX009 (ip), vehicle: sodium bicarbonate)?
A: 107 % of control

Q: And the T/C (dose: 25.0 mg/kg/injection, schedule: Q01DX009 (ip), vehicle: sodium bicarbonate)?
A: 107 % of control

Q: What about the T/C (dose: 50.0 mg/kg/injection, schedule: Q01DX009 (ip), vehicle: sodium bicarbonate) of the same compound?
A: 107 % of control

Q: And the T/C (dose: 100.0 mg/kg/injection, schedule: Q01DX009 (ip), vehicle: sodium bicarbonate)?
A: 118 % of control

Q: What about the T/C (dose: 200.0 mg/kg/injection, schedule: Q01DX009 (ip), vehicle: sodium bicarbonate) of the same compound?
A: 122 % of control

Q: Which T/C (dose: 25.0 mg/kg/injection, schedule: Q01DX009 (sc), vehicle: steriod suspending solution) does the source give for `C[C@]12CCC(=O)C=C1[C@@H](F)C[C@@H]1[C@@H]2[C@@H](O)C[C@@]2(C)[C@H]1CC[C@]2(O)C(=O)CO` here?
A: 95 % of control

Q: And the T/C (dose: 50.0 mg/kg/injection, schedule: Q01DX009 (sc), vehicle: steriod suspending solution)?
A: 97 % of control

Q: What about the T/C (dose: 100.0 mg/kg/injection, schedule: Q01DX009 (sc), vehicle: steriod suspending solution) of the same compound?
A: 101 % of control

Q: For `C[P+](C)(Cc1ccc([N+](=O)[O-])cc1)c1ccccc1`, which T/C (dose: 25.0 mg/kg/injection, schedule: Q01DX009 (ip), vehicle: Klucel (hydroxypropylcellulose) (HPC)) is on record?
A: 98 % of control

Q: What about the T/C (dose: 50.0 mg/kg/injection, schedule: Q01DX009 (ip), vehicle: Klucel (hydroxypropylcellulose) (HPC)) of the same compound?
A: 100 % of control

Q: With `NC(CO)C(O)c1ccc([N+](=O)[O-])cc1` (stereo not drawn) as the compound, how does the T/C [7] read?
A: 97 % of control

Q: What about the T/C [8] of the same compound?
A: 95 % of control

Q: What about the T/C [9] of the same compound?
A: 86 % of control

Q: What does the source list for `Nc1nc(Nc2ccccc2)nc(C(=O)O)n1`?
A: T/C [7]: 100 % of control; T/C [8]: 97 % of control; T/C [9]: 92 % of control

Q: Which results are given for `COc1cccc(C(=O)c2ccncc2C)c1OC`?
A: T/C (dose: 25.0 mg/kg/injection, schedule: Q01DX009 (ip), vehicle: water): 98 % of control; T/C (dose: 50.0 mg/kg/injection, schedule: Q01DX009 (ip), vehicle: water): 96 % of control; T/C (dose: 100.0 mg/kg/injection, schedule: Q01DX009 (ip), vehicle: water): 96 % of control

Q: For `CC(=O)/C=C(\C)OC1CCCCC1`, which T/C [4] is on record?
A: 113 % of control

Q: What about the T/C [5] of the same compound?
A: 104 % of control

Q: And the T/C [11]?
A: 92 % of control
